T1: Trifunctional purine biosynthetic protein adenosine-3 (Mus musculus, UniProt Q64737)
T1 sequence (Q64737 whole entry): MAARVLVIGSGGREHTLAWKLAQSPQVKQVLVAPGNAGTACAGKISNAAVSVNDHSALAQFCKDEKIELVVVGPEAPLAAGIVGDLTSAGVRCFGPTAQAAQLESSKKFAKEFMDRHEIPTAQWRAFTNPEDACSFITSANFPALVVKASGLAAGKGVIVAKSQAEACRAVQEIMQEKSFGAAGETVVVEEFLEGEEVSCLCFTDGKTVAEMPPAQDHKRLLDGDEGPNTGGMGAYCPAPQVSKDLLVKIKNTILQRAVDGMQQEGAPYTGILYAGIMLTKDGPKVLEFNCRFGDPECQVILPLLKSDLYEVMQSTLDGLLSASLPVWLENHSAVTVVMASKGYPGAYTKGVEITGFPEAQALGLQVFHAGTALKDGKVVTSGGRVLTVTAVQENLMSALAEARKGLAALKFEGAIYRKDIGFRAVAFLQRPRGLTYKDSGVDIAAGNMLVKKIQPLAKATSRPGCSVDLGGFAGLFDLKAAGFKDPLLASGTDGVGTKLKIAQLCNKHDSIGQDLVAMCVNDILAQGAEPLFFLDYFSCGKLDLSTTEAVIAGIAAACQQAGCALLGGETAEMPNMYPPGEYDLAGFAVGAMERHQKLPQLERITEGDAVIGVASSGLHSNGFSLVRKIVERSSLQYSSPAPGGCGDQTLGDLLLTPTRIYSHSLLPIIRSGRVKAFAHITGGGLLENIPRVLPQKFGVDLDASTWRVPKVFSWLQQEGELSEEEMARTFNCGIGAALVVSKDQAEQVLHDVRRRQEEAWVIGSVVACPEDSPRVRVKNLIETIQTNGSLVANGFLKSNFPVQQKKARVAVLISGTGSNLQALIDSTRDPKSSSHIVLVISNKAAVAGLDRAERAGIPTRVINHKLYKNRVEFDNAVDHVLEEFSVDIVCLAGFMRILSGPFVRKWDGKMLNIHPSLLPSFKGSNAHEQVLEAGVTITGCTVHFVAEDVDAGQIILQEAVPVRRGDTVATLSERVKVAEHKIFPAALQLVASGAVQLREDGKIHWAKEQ

T2: Folylpolyglutamate synthase, mitochondrial (Homo sapiens) (UniProt Q05932)
T2 sequence (whole entry): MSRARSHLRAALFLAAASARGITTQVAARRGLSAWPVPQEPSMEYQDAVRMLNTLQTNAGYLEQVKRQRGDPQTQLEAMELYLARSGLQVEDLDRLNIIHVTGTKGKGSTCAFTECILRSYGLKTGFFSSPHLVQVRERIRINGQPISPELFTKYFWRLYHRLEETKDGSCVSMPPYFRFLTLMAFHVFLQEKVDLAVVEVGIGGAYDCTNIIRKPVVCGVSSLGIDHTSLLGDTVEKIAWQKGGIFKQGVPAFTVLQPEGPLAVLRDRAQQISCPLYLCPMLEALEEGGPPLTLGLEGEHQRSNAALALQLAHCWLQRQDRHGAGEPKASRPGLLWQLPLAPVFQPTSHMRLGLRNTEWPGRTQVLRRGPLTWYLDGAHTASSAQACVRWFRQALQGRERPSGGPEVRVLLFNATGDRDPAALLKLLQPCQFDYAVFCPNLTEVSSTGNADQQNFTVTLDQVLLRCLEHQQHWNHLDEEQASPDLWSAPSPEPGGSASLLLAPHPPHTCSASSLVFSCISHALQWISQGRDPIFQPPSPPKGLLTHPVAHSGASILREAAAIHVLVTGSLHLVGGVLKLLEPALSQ

B1: Folylpolyglutamate synthase, mitochondrial (Homo sapiens), Q05932 (protein)
chain: T2 sequence (whole entry)

Columns and labels:
[1] = target: T1, Trifunctional purine biosynthetic protein adenosine-3; experiment: Tested in vitro for its inhibition of trifunctional glycinamide ribonucleotide formyltransferase (GARFT) isolated from murine L1210 leukemia cells
CCRF-CEM = experiment: Tested in vitro for cellular cytotoxicity against human T-cell derived lymphoblastic leukemia (CCRF-CEM) cells; format: functional, cell-based
[2] = target: T2, Folylpolyglutamate synthase, mitochondrial (Homo sapiens); experiment: Ratio of Vmax to Km value and expressed as k'; conditions: Sus scrofa
[3] = substrate: Nc1cc2c(c(O)n1)CC(CCc1ccc(C(=O)N[C@@H](CCC(=O)O)C(=O)O)cc1)CCN2; conditions: Sus scrofa
Description: In vitro Folyl-poly-gamma-glutamyl synthetase (FPGS) affinity

Molecule	Ki [1] [nM]	IC50 (CCRF-CEM) [nM]	k' [2]	Km [3] [µM]
Nc1nc2c(c(=O)[nH]1)C[C@@H](CCc1ccc(C(=O)N[C@@H](CCC(=O)O)C(=O)O)cc1)CN2 [LOMETREXOL]	59.7	15.2	59	–
Nc1nc2c(c(=O)[nH]1)C[C@H](CCc1ccc(C(=O)NC(CCC(=O)O)C(=O)O)cc1)CN2 (some centres undefined)	120	16	–	–
Nc1cc2c(c(O)n1)CC(CCc1ccc(C(=O)N[C@@H](CCC(=O)O)C(=O)O)cc1)CCN2 (some centres undefined)	147	47	20	–
B1	–	–	–	39

From ChEMBL document CHEMBL1129843, “Synthesis of a pyrimido[4,5-b]azepine analog of 5,10-dideaza-5,6,7,8-tetrahydrofolic acid (DDATHF)” (Bioorg Med Chem Lett, 1997)
